Test results published in patent US20240246946A1, “MODULATORS OF TREX1” (Constellation Pharmaceuticals, Inc., priority 2021, published 2024).

Key:
[1] = target: T1, full length mouse TREX1 (Mus musculus, UniProt Q91XB0); assay: mTREX1 Biochemical Assay (fluorescence, dsDNA substrate degradation); settings: biochemical, read-out: mTREX1 IC50
T1 construct: N-terminally His-Tev tagged full length mouse TREX1; made in house; host or cells: E. coli
T1 sequence (Q91XB0 1-314): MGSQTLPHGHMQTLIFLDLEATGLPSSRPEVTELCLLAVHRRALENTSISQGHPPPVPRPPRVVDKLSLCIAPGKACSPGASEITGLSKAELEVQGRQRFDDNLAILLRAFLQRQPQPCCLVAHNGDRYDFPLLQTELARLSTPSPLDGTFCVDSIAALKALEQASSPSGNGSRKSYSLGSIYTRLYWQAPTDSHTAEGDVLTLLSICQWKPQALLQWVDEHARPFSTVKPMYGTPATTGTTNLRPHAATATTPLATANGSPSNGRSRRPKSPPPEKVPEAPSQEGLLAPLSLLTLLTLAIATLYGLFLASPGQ
In short: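 Reaction run 18 h at 25° C. with 60 nM TEX615/quencher-labelled dsDNA and 6 pM mouse TREX1 in Tris buffer (pH 7.4, 5 mM MgCl2, 1.0% DMSO), enzyme having sat 4 h with compound across 10 concentrations. EDTA quench; substrate degradation measured as fluorescence increase.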

[2] = target: T2, full length human TREX1 (Homo sapiens, UniProt Q9NSU2); assay: hTREX1 Biochemical Assay (fluorescence, dsDNA substrate degradation); settings: biochemical, read-out: hTREX1 IC50
T2 construct: N-terminally His-Tev tagged full length human TREX1; made in house; host or cells: E. coli
T2 sequence (Q9NSU2 1-314): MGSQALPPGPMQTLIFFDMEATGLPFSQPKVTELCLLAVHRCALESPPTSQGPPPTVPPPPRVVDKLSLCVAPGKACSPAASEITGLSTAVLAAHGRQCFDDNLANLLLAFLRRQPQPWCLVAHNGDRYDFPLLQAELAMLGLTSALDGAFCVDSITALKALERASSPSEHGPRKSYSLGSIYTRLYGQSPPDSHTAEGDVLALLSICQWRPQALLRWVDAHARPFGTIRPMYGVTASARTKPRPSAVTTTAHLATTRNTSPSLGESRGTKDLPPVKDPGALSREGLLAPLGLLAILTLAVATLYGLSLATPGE
In short: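 Cleavage of 60 nM TEX615/quencher-labelled dsDNA in pH 7.4 Tris buffer with 5 mM MgCl2, 1.0% DMSO, run 18 hours at 25° C, EDTA-quenched; fluorescence read-out.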

[3] = target: T3, hTREX1 (Homo sapiens, UniProt Q9NSU2); assay: hTREX1 HCT116 Cell Assay (HCT116 dual cells, Lucia luciferase reporter of Type I interferon induction); format: cell-based; settings: TREX1i 4 h before pBR322/BstNI transfection, read after 48 h
T3 construct: host or cells: HCT116 dual cells
T3 sequence (Q9NSU2 1-314): T2 sequence (Q9NSU2 1-314)
In short: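 HCT116 dual cells carrying an ISRE-type STAT1/STAT2-driven secreted Lucia luciferase reporter were pretreated with TREX1 inhibitor for 4 h (≤0.1% DMSO), then transfected with pBR322/BstNI DNA (100 ng/well, Lipofectamine LTX). Luciferase in medium read after 48 h at 37 °C.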

[4] = target: T4, human TREX2 (residues M44-A279) (Homo sapiens, UniProt Q9BQ50); assay: hTREX2 Biochemical Assay (fluorescence, dsDNA substrate degradation); settings: biochemical selectivity for hTREX1 vs hTREX2
T4 construct: human TREX2 (residues M44-A279, expressed in E. coli); made in house; host or cells: E. coli
T4 sequence (Q9BQ50 44-279 isoform Q9BQ50-1): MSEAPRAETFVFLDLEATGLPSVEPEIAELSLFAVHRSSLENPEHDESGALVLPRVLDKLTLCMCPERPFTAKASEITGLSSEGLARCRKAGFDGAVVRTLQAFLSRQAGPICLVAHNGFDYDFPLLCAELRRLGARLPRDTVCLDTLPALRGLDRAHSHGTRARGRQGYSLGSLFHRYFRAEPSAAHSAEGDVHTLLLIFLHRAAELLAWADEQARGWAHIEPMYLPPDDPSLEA
In short: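 N-His-Tev E. coli enzyme (50 pM) pre-incubated with compound 4 h at 25 °C, then 60 nM TEX615/quencher dsDNA added; 18 h at 25 °C, pH 7.4 Tris buffer with 5 mM MgCl2, 1.0% DMSO. EDTA-quenched; fluorescence 570 ex/615 em from liberated fluorophore, 10-point dose-response.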

SMILES	IC50 [1] [µM]	IC50 [2] [µM]	IC50 [3] [µM]	hTREX1 vs hTREX2 selectivity [4]
Cc1n[nH]c(C)c1C(c1ccccc1C#N)C(C)c1nc(C(=O)Nc2cnoc2)c(O)c(=O)n1C (single isomer, unassigned) [Example 95 D1E1]	0.001 to 0.01	< 0.001	< 0.01	C (C = >50 fold selective for hTREX1)
Cc1c(C(c2ccccc2C#N)C(C)c2nc(C(=O)Nc3cnoc3)c(O)c(=O)n2C)cnn1C (single isomer, unassigned) [Example 4 D2E2]	> 0.01	0.001 to 0.01	> 0.1	B (B = 25 to 50-fold selective for hTREX1)
Cc1cn(C(c2ccccc2Cl)C(C)c2nc(C(=O)Nc3cnoc3)c(O)c(=O)n2C)cn1 (single isomer, unassigned) [Example 142 D1E2]	0.001 to 0.01	< 0.001	> 0.1	A (A = <25 fold selective for hTREX1)
CC(c1nc(C(=O)Nc2cnoc2)c(O)c(=O)n1C)C(c1cn[nH]c1)c1ccccc1C#N (single isomer, unassigned) [Example 12 D1E1]	0.001 to 0.01	< 0.001	0.01 to 0.1	C (C = >50 fold selective for hTREX1)
Cc1ncc(C(c2ccccc2Cl)C(C)c2nc(C(=O)Nc3cnoc3)c(O)c(=O)n2C)cn1 (single isomer, unassigned) [Example 44 D1E2]	0.001 to 0.01	0.001 to 0.01	0.01 to 0.1	B (B = 25 to 50-fold selective for hTREX1)
Cc1nnc(C(c2ccccc2Cl)C(C)c2nc(C(=O)Nc3cnoc3)c(O)c(=O)n2C)o1 (single isomer, unassigned) [Example 156 D1E1]	> 0.01	> 0.01	> 0.1	A (A = <25 fold selective for hTREX1)
Cc1cnn(C(c2cc(F)ccc2Cl)C(C)c2nc(C(=O)Nc3cnoc3)c(O)c(=O)n2C)c1 (single isomer, unassigned) [Example 144 D1E2]	> 0.01	0.001 to 0.01	> 0.1	A (A = <25 fold selective for hTREX1)
Cc1cnn(C)c1C(c1ccccc1C#N)C(C)c1nc(C(=O)Nc2cnoc2)c(O)c(=O)n1C (single isomer, unassigned) [Example 84 D1E1]	0.001 to 0.01	< 0.001	0.01 to 0.1	B (B = 25 to 50-fold selective for hTREX1)
Cc1ccn(C(c2ccccc2C#N)C(C)c2nc(C(=O)Nc3cnoc3)c(O)c(=O)n2C)n1 (single isomer, unassigned) [Example 132 D1E2]	0.001 to 0.01	< 0.001	0.01 to 0.1	C (C = >50 fold selective for hTREX1)
CC(c1nc(C(=O)Nc2cnoc2)c(O)c(=O)n1C)C(c1cnn(CCOC(F)(F)F)c1)c1cc(F)ccc1C#N (single isomer, unassigned) [Example 101 D1E2]	0.001 to 0.01	< 0.001	0.01 to 0.1	C (C = >50 fold selective for hTREX1)
CCn1cc(C(c2ccccc2Cl)C(C)c2nc(C(=O)Nc3cnoc3)c(O)c(=O)n2C)cn1 (single isomer, unassigned) [Example 85 D1E2]	> 0.01	0.001 to 0.01	> 0.1	A (A = <25 fold selective for hTREX1)
COCCn1ncc(C(c2ccccc2C#N)C(C)c2nc(C(=O)Nc3cnoc3)c(O)c(=O)n2C)c1C (single isomer, unassigned) [Example 69 D1E1]	0.001 to 0.01	0.001 to 0.01	0.01 to 0.1	B (B = 25 to 50-fold selective for hTREX1)
CC(c1nc(C(=O)Nc2cnoc2)c(O)c(=O)n1C)C(c1cnn(C)c1)c1ccc(Cl)cc1C#N (single isomer, unassigned) [Example 27 D1E1]	< 0.001	< 0.001	< 0.01	C (C = >50 fold selective for hTREX1)
COC(C)(C)Cn1cc(C(c2cc(F)ccc2Cl)C(C)c2nc(C(=O)Nc3cnoc3)c(O)c(=O)n2C)cn1 (single isomer, unassigned) [Example 93 D1E2]	> 0.01	0.001 to 0.01	> 0.1	A (A = <25 fold selective for hTREX1)
Cc1ncc(C(c2ccccc2Cl)C(C)c2nc(C(=O)Nc3cnoc3)c(O)c(=O)n2C)nc1C (single isomer, unassigned) [Example 125 D2E1]	> 0.01	0.001 to 0.01	> 0.1	A (A = <25 fold selective for hTREX1)
Cc1nc(C)c(C(c2ccccc2C#N)C(C)c2nc(C(=O)Nc3cnoc3)c(O)c(=O)n2C)nc1C (single isomer, unassigned) [Example 122 D2E1]	> 0.01	0.001 to 0.01	> 0.1	B (B = 25 to 50-fold selective for hTREX1)
Cc1cc(C(c2cc(F)ccc2Cl)C(C)c2nc(C(=O)Nc3cnoc3)c(O)c(=O)n2C)n(C)n1 (single isomer, unassigned) [Example 113 D1E1]	> 0.01	> 0.01	0.01 to 0.1	C (C = >50 fold selective for hTREX1)
CC(c1nc(C(=O)Nc2cnoc2)c(O)c(=O)n1C)C(c1cnn(C)c1)c1cc(F)c(F)cc1C#N (single isomer, unassigned) [Example 25 D1E1]	0.001 to 0.01	< 0.001	< 0.01	C (C = >50 fold selective for hTREX1)
Cc1cnc(C)c(C(c2cc(F)ccc2C#N)C(C)c2nc(C(=O)Nc3cnoc3)c(O)c(=O)n2C)n1 (single isomer, unassigned) [Example 119 D2E2]	> 0.01	> 0.01	> 0.1	A (A = <25 fold selective for hTREX1)
COCCCn1cc(C(c2ccccc2C#N)C(C)c2nc(C(=O)Nc3cnoc3)c(O)c(=O)n2C)cn1 (single isomer, unassigned) [Example 24 D1E1]	< 0.001	< 0.001	< 0.01	C (C = >50 fold selective for hTREX1)
CC(c1nc(C(=O)Nc2cnoc2)c(O)c(=O)n1C)C(c1ccccc1Cl)c1cn(C)nc1F (single isomer, unassigned) [Example 130 D1E1]	< 0.001	< 0.001	< 0.01	B (B = 25 to 50-fold selective for hTREX1)
